In general, Ki refers to a dissociation constant, usually derived from enzyme kinetics or from competition with a known ligand. Lower therefore signals tighter binding.

The target of one experiment is T1, ERα (Y537S mutant) (Homo sapiens, UniProt P03372, Y537S).
T1 sequence (P03372 1-595 Y537S): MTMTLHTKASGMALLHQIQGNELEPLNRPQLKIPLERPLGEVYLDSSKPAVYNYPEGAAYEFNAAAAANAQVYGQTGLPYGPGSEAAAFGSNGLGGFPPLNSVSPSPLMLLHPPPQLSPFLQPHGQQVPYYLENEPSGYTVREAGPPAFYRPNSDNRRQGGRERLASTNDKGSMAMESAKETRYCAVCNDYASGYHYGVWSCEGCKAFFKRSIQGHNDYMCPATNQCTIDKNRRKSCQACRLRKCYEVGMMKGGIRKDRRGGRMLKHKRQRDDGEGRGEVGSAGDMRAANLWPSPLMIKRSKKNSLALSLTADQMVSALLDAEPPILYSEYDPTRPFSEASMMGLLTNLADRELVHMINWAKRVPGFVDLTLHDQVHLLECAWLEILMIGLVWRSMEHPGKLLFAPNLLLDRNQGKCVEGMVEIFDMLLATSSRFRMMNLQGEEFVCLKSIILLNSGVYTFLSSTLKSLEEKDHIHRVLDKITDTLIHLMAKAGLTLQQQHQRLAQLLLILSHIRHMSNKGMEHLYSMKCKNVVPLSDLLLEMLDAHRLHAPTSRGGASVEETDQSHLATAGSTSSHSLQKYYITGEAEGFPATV
Kind of experiment: ERα (Y537S mutant) competition binding assay. Particulars: 3H-estradiol competition, n=3. On the procedure: The purpose of the following ER competition binding assays is to determine the binding affinity of a test compound against ERα (wild type) and ERα (Y537S mutant) See Fanning et al., “Estrogen receptor alpha somatic mutations Y537S and D538G confer breast cancer endocrine resistance by stabilizing the activating function-2 binding conformation,” eLife 2016; 5:e12792.
Run the competition binding assay in a buffer containing 50 mM HEPES, pH 7.5, 1.5 mM EDTA, 150 mM NaCl, 10% glycerol, 1 mg/mL ovalbumin, and 5 mM DTT, using 0.025 µCi per well ^3H-estradiol (118 Ci/mmol, 1 mCi/mL), 7.2 ng/well ERα (wild type), or 7.2 ng/well ERα (Y537S mutant). Add the test compound at 10 different concentrations ranging from 10,000 nM to 0.5 nM, and determine nonspecific binding in the presence of 1 μM of […]. Incubate the binding reaction (140 μL) for 4 hours at room temperature, and then add cold dextran-charcoal buffer (70 μL) (containing per 50 mL of assay buffer, 0.75 g of charcoal and 0.25 g of dextran) to each reaction. Mix the plates for 8 minutes on an orbital shaker at 4° C. and then centrifuge at 3000 rpm at 4° C. for 10 minutes. […] After an incubation of 2.5 hours, read the plates in a Wallac Microbeta counter. […]

Another experiment relates to MCF7 ESR1 wild type. Kind of experiment: Cell proliferation assay in MCF7. Particulars: Homo sapiens, seven days, n=2, read-out: Relative IC50 (nM), cell proliferation. Type of experiment: cell-based. From the text: The purpose of the following cell proliferation assays generally is to detect whether a test compound has effects on cell proliferation, cell viability, and cytotoxicity in response to treatment in cell culture experiments. Cell proliferation is monitored by monitoring the number of cells over time and the […] assay used allows continuous measurement of cell viability over time.
Seed MCF7 (purchased from ATCC HTB-22) cells at a density of 2,000 cells per well in DMEM phenol red free media 10% FBS (20 μL volume) (charcoal stripped) into a clear bottom 384-well cell culture plate. […] Scan the plates with ACUMEN EXPLORER™ [Laser-scanning fluorescence microplate cytometer manufactured by TTP LABTECH LTD]. The MCF-7 cell line grows forming aggregates, cell number as number of objects may not be able to be used as readout; so the cell number may be evaluated through estimated number of cells (calculated through the area parameter (ratio of total area of the total cells population (a designated range of peak intensity of FL-1 (PI) and the mean area of the single cells population (defined by perimeter)). Determine the IC50 by curve fitting to a four parameter logistic for each output using GENE DATA™.

Take `O=C(c1ccc(OCCN2CC(CF)C2)cc1)c1c(-c2ccc(C(F)(F)F)cc2F)cnc2cc(O)ccc12` [Example 1, (4-{2-[3-(Fluoromethyl)azetidin-1-yl]ethoxy}phenyl){3-[2-fluoro-4-(trifluoromethyl)phenyl]-7-hydroxyquinolin-4-yl}methanone]: the Ki at ERα (Y537S mutant) was 0.0212 ± 0.00212 µM. In addition, the IC50 with MCF7 ESR1 wild type was found to be 9.24 ± 1.74 nM.

For the origin of these results see US12128040B2, “Selective estrogen receptor degraders” (Eli Lilly and Company, priority 2018, dated 2024).
